Substitutions are numbered along the chain they refer to.
Assays:
[1] = target: T1, FicD^E234G (Homo sapiens, UniProt Q9BVA6, E234G); experiment: MIDAS metabolite screen, FicD^E234G; assay type: binding; settings: cutoff Q < 0.05 and |Log2 corrected fold change| > 2, metabolites 5 µM
T1 construct: soluble ER luminal domain (residues 105 to 458) of wild-type human FicD and three mutants; 6xHis-Sumo (N, cleaved yes); made in house; host or cells: Rosetta(DE3) E. coli
T1 sequence (Q9BVA6 105-458 E234G): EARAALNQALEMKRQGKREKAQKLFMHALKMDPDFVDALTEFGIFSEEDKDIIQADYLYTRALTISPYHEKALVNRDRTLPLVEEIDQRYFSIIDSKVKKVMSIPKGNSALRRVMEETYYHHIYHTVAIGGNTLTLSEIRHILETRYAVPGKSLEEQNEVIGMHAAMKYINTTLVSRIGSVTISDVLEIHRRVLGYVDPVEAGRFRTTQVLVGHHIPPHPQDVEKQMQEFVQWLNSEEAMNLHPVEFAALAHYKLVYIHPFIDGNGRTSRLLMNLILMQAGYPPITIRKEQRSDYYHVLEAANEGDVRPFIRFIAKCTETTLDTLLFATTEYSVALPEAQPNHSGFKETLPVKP

[2] = target: T2, FicD^L258D (Homo sapiens, UniProt Q9BVA6, L258D); experiment: Differential scanning fluorimetry (DSF) thermal shift with FicD^L258D; assay type: binding
T2 construct: soluble ER luminal domain (residues 105 to 458) of wild-type human FicD and three mutants; 6xHis-Sumo (N, cleaved yes); made in house; host or cells: Rosetta(DE3) E. coli
T2 sequence (Q9BVA6 105-458 L258D): T1 sequence (Q9BVA6 105-458 E234G) with G130E, L154D
Procedure: Differential Scanning Fluorimetry
Thermal shift assays were performed in Biorad CfX384 Touch Real-Time PCR Detection System […]
Reactions contained 50mM HEPES pH 7.4, 200mM NaCl, 200mM KCl, 200uM DTT, 5X Invitrogen Sypro Orange (Cat no. S6650), 8-9μM protein, and indicated nucleotide, cofactor, or small molecule in a total volume of 20uL. For every experiment ‘no protein’ controls were also included with the same reaction conditions. All reactions were performed in technical triplicates. Sealed plates containing reaction mixes were centrifuged for 1-5 min at 1000 RPM prior to temperature scanning (FRET channel), which was performed from 6°C […]
DSF data was analyzed with traditional methods automated in a Python package (https://pypi.org/project/instawell/). Briefly, for each temperature, the RFU values of technical triplicates are averaged. For each timepoint, the background fluorescence was subtracted using the RFU values of the ‘no protein’ control. […]
calculated. The melting temperature (Tm) is defined as the first derivative peak value. Data

[3] = target: T3, FicD^WT (Homo sapiens, UniProt Q9BVA6); experiment: In vitro deAMPylation of Δ26hBiP^T229A-AMP by FicD^WT (Western blot); assay type: biochemical; settings: 100 μM metabolite, 5 mM MgCl2
T3 construct: soluble ER luminal domain (residues 105 to 458) of wild-type human FicD; 6xHis-Sumo (N, cleaved yes); made in house; host or cells: Rosetta(DE3) E. coli
T3 sequence (Q9BVA6 105-458): T1 sequence (Q9BVA6 105-458 E234G) with G130E
Source text: (§1) We next sought to assess the effects of FPP, GPP, and isoprenoid analogues on FicD activity. To accurately judge the effects of small molecules on FicD AMPylation activity, we used the ATPase defective BiP^T229A mutant as substrate ([22], [49], [50]). Loss of ATP hydrolysis by the BiP mutant ensures: 1. conformational homogeneity of the BiP protein substrate; 2. lack of BiP competition for the ATP substrate; and 3. no production of ADP, a competitive inhibitor for ATP. In addition, we deleted the first 25 amino acids of BiP for ease with its purification and solubility. […]
For deAMPylation assays with FicD and BiP, Δ26hBiPT229A was in-vitro AMPylated by […]
5mM MgCl2, 500uM ATP, 0.5% CHAPS, 1mM DTT. After one hour of incubation at 30-37C, the entire reaction mix was transferred into an Amicon 0.5mL 50kDa MWCO concentrator (cat no.
7.4/150mM NaCl/10% glycerol/1mM DTT was added to the concentrated AMPylation reaction and then spun down again at 14,000 x g at 4C for 5-10 minutes. This step was repeated four times to buffer exchange AMPylated Δ26hBiPT229A.
Δ104hFicDWT and Δ26hBiPT229A-AMP were combined at a ratio of 1:80 in buffer containing 25mM HEPES pH 7.4, 100mM KCl, 5mM MgCl2, 1mM DTT and the indicated small molecule where applicable. Reactions were incubated at 37C for 1 hour and stopped by the addition EDTA. 5X SDS sample buffer (250mM Tris pH 6.8, 10% Lithium dodecyl sulfate, 50% glycerol, 50mM DTT, 0.05% Bromophenol blue) was then added to the reactions and reactions were heated for 5 minutes at […]

[4] = target: T3, FicD^WT; experiment: In vitro AMPylation of Δ26hBiP^T229A by FicD^WT (Western blot); assay type: biochemical; settings: 100 μM metabolite, 500 μM ATP, 5 mM MgCl2
Source text: as §1
For AMPylation assays with FicD and BiP, Δ104FicDWT and Δ26hBiPT229A were combined at a ratio
of 1:80 in buffer containing 25mM HEPES pH 7.4, 100mM KCl, 5mM MgCl2, 500μM ATP, 1mM
DTT, and small molecule where indicated. Assays with Δ104FicDWT were incubated for 1 hour.
the amount of FicD as in reactions containing FicDWT and were incubated at 37C for 4.5 hours. […]

[5] = target: T2, FicD^L258D; experiment: MIDAS metabolite screen, FicD^L258D; assay type: binding; settings: cutoff Q < 0.05 and |Log2 corrected fold change| > 2, metabolites 5 µM
Source text: To identify small-molecule metabolite interactions with FicD, we applied an unbiased high-throughput screening approach known as MIDAS ([44]). Given the high concentrations of protein required for MIDAS screening, we purified the soluble ER luminal domain (residues 105 to 458) of wild-type human FicD and three mutants FicD^E234G, FicD^L258D, and FicD^H363A for screening (Fig. 1A). These mutants were selected based on their well-established biochemical features ([23], [24], [31]). All three are predicted to enhance detection of protein–metabolite interactions (PMIs) relative to FicD^WT through increased affinity for nucleotide substrates (FicD^E234G), improved solubility (FicD^L258D), and loss of catalytic turnover (FicD^H363A) (Fig. 1A). To decrease the potential for nonspecific small-molecule binding, we ensured the purity of our FicD proteins (SI Appendix, Fig. S1 A and B). As reported by other investigators ([24], [31]), we observe an increase in elution volume of the FicD^L258D mutant, consistent with its monomerization (SI Appendix, Fig. S1C).
Out of the 602 naturally occurring human metabolites in the MIDAS library, we applied a significance cutoff (q value < 0.05) to identify 12 PMIs with a Log2 (corrected fold change) of >2 and two PMIs with a Log2 (corrected fold change) <-2 in the FicD^WT screen (Fig. 1B and SI Appendix, Table S2). Hits were additionally triaged based on detection of multiple adducts of the metabolite in a single dataset (FPP and […] in Fig. 1B) and identification of the same metabolites across three or more of the FicD construct screens (Fig. 1C). Three chemical classes passed this initial triage: adenosine nucleotides, isoprenoid diphosphates, and thyroid hormone intermediates (Fig. 1 B and C and SI Appendix, Tables S2–S5).
22°C. Induced cultures were then harvested by centrifugation at 8000G for 15 minutes at 4°C and […]
Bacterial pellets were resuspended in 30-50mL of 50mM Tris pH 7.4/150mM NaCl/10% glycerol with one Roche cOmplete EDTA-Free Protease inhibitor cocktail tablet (cat no. COEDTAF-RO).
Triton-X100 to a final concentration of 0.2%, Chicken-egg lysozyme to a final concentration of 0.4ug/mL, and 2-5uL of Millipore Benzonase Nuclease (cat no. 70664) were added to bacterial suspension prior to sonication at 40-50% amplitude for 1-3 minutes in pulses of 5 seconds on and 30 seconds off on ice with a Sonics VCX 750 Ultrasonicator. Bacterial lysate was then clarified by centrifugation at 30,000 x g for 30 minutes at 4°C.
Clarified lysate was rotated with Qiagen NiNTA agarose beads (cat no. 30210) for 1-2 hours at 4°C. The beads were then transferred to a 15mL conical vial, resuspended in 10-15mL wash buffer (50mM Tris pH 7.4/150mM NaCl/10% glycerol/0.2% Triton-X 100/10mM imidazole), and spun down at 1000G for 1 minute at 4°C, after which the supernatant was aspirated from the beads. This washing step was repeated 2-4 times to rinse bacterial lysate from the beads prior to on-column washing. The beads were then transferred to BioRad Econopac 20mL bed volume column (cat no.
7321010) and washed with 10-15mL of wash buffer (repeated at least three times), 10mL of ATP wash (50mM Tris pH 7.4/300mM KCl/10mM MgCl2/500uM ATP, repeated once), and finally with 10-15mL wash buffer without Triton-X 100 (repeated at least three times). Protein was eluted in 500μL-1mL elution buffer (50mM Tris pH 7.5/150mM NaCl/10% glycerol/0.5% CHAPS). […]

[6] = target: T3, FicD^WT; experiment: MIDAS equilibrium dialysis/mass spectrometry metabolite screen, FicD^WT; assay type: binding; settings: cutoff Q < 0.05 and |Log2 corrected fold change| > 2, metabolites 5 µM

SMILES | MIDAS protein-metabolite interaction (enrichment/depletion) [1] | binding to FicD^L258D by DSF ([2]; absence of MgCl2) | binding to FicD^L258D by DSF ([2]; presence of 5 mM MgCl2) | inhibition of deAMPylation activity of FicD^WT [3] | inhibition of AMPylation of Δ26hBiP^T229A by FicD^WT [4] | MIDAS protein-metabolite interaction (enrichment/depletion) [5] | MIDAS protein-metabolite interaction (enrichment/depletion) [6] | maximal Tm shift at saturating ligand concentration ([2]; FicD^L258D, 5 mM MgCl2) | EC50 ([2]; FicD^L258D, 5 mM MgCl2, read-out: EC50 of DSF dose-response (ΔTm))
Nc1ncnc2c1ncn2[C@@H]1O[C@H](COP(=O)(O)OP(=O)(O)OP(=O)(O)O)[C@@H](O)[C@H]1O [ATP, adenosine triphosphate] | did not pass the significance cutoff | did not bind | did not show saturation |  |  |  |  |  | 
CC(C)=CCOP(=O)(O)OP(=O)(O)O [DMAPP, dimethylallyl-pyrophosphate] |  |  | did not bind | did not affect | did not |  |  |  | 
CC(C)=CCC/C(C)=C\CC/C(C)=C\COP(=O)(O)O [FMP, farnesyl-monophosphate] |  |  | did not bind | did not affect | did not |  |  |  | 
CC(C)=CCC/C(C)=C/COP(=O)(O)O [GMP, geranyl-monophosphate] |  |  | did not bind | did not affect | did not |  |  |  | 
CC(O)(CCOP(=O)(O)OP(=O)(O)O)CC(=O)O (centres unmarked) [MVAPP, mevalonate-pyrophosphate] |  |  | did not bind | did not affect | did not |  |  |  | 
Nc1ncnc2c1ncn2[C@H]1C[C@H](O)[C@@H](COP(=O)(O)OP(=O)(O)OP(=O)(O)O)O1 [dATP] | significantly enriched | did not bind | binding |  |  | did not pass the significance cutoff | significantly enriched | ~ 7 °C | 530 µM
CC(C)=CCC/C(C)=C/CC/C(C)=C/CO [farnesol] |  |  | did not bind | did not affect | did not |  |  |  | 
CC(C)=CCC/C(C)=C/CO [geraniol] |  |  | did not bind | did not affect | did not |  |  |  | 
O=CC(=O)O [glyoxylic acid] |  |  |  |  |  |  | significantly depleted |  | 

Reference: paper PMC12974487, “Inhibition of FicD-mediated AMPylation and deAMPylation by isoprenoid diphosphates” (Proceedings of the National Academy of Sciences of the …, 2026)
